From ChEMBL document CHEMBL5465560, “Selectivity Literature for EUbOPEN Chemogenomic Library” (2024)

Legend:
[1] = biological target: Serine/threonine-protein kinase PLK2 (Homo sapiens, UniProt Q9NYY3); experiment: Selectivity interaction (Ambit KINOMEscan and KiNATiv profiling in Jurkat cells) EUB0000090b PLK2; assay type: cell-based; settings: at 1 µM
[2] = biological target: Mitogen-activated protein kinase 10 (Homo sapiens, UniProt P53779); experiment: Selectivity interaction (KinomeScan (DiscoverX)) EUB0001619a MAPK10; settings: at 1 µM
[3] = biological target: T1, Cyclin-dependent kinase-like 5 (Homo sapiens) (UniProt O76039); experiment: Selectivity interaction (KinomeScan (DiscoverX)) EUB0001619a CDKL5; settings: at 1 µM
T1 sequence (whole entry): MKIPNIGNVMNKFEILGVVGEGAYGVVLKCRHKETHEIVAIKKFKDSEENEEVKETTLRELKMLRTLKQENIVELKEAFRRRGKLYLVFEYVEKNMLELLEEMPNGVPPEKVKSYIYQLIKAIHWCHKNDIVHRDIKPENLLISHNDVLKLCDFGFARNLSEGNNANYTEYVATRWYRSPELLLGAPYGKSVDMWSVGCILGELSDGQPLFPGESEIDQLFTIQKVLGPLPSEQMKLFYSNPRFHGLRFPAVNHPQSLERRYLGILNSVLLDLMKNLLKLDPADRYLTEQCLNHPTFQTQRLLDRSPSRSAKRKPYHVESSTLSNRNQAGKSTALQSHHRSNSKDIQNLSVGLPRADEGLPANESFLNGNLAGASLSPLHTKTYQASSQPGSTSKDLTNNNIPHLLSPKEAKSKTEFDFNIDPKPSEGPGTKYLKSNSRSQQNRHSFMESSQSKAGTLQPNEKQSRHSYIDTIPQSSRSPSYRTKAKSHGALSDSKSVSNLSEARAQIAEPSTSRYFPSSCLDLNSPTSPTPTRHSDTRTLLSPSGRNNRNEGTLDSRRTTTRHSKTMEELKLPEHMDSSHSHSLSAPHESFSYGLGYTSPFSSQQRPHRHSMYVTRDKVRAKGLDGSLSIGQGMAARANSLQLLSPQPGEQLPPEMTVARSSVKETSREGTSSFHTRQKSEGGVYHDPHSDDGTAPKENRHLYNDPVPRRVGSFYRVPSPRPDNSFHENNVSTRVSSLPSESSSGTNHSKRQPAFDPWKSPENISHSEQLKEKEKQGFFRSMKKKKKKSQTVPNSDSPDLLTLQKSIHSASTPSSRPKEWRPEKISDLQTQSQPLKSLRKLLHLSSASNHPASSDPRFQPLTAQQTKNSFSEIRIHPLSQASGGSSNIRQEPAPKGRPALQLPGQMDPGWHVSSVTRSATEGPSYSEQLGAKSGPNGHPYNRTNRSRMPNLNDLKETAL

[4] = test system: Tyrosine-protein kinase ABL1 (Homo sapiens), P00519 [Y253F]; settings: at 10 µM
[5] = biological target: Tyrosine-protein kinase HCK (Homo sapiens) (UniProt P08631); settings: at 10 µM
[6] = biological target: Fibroblast growth factor receptor 4 (Homo sapiens, UniProt P22455); experiment: Selectivity interaction (Kinase panel (Invitrogen)) EUB0000639a FGFR4; settings: at 200 nM
[7] = biological target: T2, Mitogen-activated protein kinase kinase kinase 13 (Homo sapiens) (UniProt O43283); experiment: Selectivity interaction (KinomeScan (DiscoverX)) EUB0000229b MAP3K13; settings: at 10 µM
T2 sequence (whole entry): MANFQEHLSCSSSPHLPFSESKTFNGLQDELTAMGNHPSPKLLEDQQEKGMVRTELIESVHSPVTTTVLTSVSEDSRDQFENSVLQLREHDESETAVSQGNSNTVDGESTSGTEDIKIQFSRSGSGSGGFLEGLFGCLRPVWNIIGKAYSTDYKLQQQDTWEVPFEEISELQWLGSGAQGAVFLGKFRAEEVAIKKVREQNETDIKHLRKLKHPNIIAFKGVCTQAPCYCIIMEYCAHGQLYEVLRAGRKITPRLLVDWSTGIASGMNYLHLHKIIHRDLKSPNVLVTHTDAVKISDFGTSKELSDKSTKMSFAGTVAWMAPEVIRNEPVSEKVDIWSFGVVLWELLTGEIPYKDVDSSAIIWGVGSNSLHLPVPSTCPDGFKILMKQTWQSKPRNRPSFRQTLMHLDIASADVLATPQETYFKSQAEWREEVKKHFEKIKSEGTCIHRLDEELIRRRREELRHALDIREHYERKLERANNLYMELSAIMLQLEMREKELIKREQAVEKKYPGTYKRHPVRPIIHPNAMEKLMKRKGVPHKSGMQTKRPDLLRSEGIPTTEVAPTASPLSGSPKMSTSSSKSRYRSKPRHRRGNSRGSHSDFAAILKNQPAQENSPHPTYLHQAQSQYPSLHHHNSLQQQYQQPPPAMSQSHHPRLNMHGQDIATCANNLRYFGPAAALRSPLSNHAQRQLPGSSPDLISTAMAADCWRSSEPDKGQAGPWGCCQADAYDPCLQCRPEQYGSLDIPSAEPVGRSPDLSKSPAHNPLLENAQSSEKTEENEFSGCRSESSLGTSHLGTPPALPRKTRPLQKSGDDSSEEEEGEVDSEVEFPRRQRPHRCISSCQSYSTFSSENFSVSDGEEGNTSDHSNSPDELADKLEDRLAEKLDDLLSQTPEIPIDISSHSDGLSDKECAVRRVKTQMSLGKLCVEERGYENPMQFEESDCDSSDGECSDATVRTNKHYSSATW

[8] = biological target: cAMP-dependent protein kinase catalytic subunit alpha (Homo sapiens, UniProt P17612); experiment: Selectivity interaction (ProQinase) EUB0000171b PRKACA
[9] = Selectivity interaction (KinomeScan (DiscoverX)) EUB0001049a CDPK1; settings: at 1 µM
[10] = biological target: Substance-P receptor (Homo sapiens) (UniProt P25103); experiment: Selectivity interaction (Panel of kinases, GPCRs, ion channels and transporters (enzymatic assay)) EUB0000223bCl TACR1
[11] = biological target: T3, cAMP-dependent protein kinase catalytic subunit PRKX (Homo sapiens) (UniProt P51817); experiment: Selectivity interaction (KinomeScan (DiscoverX)) EUB0000092b PRKX; settings: at 10 µM
T3 sequence (whole entry): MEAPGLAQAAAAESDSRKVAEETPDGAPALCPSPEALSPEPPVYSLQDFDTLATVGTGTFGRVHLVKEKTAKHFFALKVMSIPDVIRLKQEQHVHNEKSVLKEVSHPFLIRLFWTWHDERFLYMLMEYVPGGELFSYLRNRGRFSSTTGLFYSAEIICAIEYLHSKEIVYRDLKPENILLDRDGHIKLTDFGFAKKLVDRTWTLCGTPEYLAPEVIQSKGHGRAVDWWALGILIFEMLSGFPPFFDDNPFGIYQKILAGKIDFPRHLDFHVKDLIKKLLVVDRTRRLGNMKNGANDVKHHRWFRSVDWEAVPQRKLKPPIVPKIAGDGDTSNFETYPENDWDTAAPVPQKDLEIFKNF

Chain of Tyrosine-protein kinase HCK (Homo sapiens) (P08631 2-526 limits assumed): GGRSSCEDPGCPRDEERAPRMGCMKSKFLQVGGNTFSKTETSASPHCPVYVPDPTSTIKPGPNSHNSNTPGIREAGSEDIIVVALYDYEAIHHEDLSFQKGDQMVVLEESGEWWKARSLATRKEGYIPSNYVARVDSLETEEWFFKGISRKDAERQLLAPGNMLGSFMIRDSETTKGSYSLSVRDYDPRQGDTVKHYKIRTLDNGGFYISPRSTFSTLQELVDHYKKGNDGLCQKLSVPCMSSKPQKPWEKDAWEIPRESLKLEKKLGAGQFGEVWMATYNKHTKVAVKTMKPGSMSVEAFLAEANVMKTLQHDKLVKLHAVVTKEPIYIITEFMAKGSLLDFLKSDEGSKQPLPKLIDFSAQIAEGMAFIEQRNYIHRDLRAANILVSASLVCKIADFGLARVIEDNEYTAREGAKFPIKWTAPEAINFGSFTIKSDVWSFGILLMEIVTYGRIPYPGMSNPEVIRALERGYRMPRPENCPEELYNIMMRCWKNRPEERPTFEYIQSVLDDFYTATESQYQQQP
Chain of Substance-P receptor (Homo sapiens) (P25103 whole entry): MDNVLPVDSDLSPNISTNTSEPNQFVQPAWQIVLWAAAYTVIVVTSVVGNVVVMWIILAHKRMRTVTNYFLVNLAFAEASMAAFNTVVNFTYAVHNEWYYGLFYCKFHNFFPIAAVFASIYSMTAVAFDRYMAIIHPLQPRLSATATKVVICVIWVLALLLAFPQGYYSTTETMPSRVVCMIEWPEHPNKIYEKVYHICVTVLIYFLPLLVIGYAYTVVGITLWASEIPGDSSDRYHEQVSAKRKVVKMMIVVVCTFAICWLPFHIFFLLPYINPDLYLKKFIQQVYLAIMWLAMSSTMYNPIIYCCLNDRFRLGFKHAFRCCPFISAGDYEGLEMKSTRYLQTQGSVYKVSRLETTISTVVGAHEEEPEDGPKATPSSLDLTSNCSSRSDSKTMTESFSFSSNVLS
Chain of Mitogen-activated protein kinase 10 (P53779 whole entry): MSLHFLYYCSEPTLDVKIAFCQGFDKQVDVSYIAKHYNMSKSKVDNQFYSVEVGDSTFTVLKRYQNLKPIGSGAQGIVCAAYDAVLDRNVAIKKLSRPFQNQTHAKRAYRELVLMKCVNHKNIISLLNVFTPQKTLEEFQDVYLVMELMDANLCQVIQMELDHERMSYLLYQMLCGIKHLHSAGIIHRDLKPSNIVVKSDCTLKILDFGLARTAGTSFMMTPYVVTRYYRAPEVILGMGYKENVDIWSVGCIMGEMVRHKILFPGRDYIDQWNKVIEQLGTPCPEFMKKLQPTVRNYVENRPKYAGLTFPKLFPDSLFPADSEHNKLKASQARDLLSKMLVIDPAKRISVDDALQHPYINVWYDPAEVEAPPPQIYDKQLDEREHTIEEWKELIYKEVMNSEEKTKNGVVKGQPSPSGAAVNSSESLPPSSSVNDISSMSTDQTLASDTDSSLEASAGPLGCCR
Chain of Serine/threonine-protein kinase PLK2 (Q9NYY3 whole entry, looked up): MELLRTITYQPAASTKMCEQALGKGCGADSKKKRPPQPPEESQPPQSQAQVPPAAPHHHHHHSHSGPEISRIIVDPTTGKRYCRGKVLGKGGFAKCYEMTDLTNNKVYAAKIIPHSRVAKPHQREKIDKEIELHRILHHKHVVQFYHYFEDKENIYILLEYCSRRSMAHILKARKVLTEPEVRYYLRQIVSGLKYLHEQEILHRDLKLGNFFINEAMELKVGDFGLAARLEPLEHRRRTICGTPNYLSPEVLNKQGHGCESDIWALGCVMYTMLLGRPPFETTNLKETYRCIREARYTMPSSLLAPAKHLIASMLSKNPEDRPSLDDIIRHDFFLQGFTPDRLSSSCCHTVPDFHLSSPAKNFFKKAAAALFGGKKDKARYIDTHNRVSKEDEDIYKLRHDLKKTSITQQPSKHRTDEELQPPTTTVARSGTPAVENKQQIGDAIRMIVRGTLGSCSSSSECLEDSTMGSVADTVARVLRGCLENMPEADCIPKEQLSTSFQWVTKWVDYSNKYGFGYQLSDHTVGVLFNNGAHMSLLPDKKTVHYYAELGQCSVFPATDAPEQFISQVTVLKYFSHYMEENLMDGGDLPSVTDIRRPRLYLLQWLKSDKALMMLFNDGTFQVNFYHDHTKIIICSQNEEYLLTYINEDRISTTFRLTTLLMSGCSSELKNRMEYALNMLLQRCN
Chain of Fibroblast growth factor receptor 4 (P22455 22-802 limits assumed): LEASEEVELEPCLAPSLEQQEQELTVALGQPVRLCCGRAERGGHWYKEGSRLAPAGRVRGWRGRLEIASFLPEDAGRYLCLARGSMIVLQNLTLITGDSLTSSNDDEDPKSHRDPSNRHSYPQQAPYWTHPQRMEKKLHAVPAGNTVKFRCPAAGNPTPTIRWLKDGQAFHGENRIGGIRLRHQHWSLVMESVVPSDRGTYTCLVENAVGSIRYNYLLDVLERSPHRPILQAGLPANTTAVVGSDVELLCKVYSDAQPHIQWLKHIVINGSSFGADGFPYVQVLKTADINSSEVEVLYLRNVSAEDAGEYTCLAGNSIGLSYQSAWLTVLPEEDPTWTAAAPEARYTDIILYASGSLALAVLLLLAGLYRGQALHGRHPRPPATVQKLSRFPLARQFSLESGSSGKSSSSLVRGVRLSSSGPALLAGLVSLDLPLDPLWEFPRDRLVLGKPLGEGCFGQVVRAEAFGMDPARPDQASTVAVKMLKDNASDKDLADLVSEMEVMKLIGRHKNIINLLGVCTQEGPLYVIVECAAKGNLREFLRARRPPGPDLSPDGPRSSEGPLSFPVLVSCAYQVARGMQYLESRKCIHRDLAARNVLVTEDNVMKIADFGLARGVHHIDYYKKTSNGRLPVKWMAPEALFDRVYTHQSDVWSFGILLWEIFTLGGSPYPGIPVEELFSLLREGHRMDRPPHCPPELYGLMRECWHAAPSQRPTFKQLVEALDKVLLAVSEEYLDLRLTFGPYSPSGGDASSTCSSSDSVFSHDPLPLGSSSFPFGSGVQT

`CN(C)C/C=C/C(=O)Nc1ccc(C(=O)N2CCCC(Nc3ncc(Cl)c(-c4c[nH]c5ccccc45)n3)C2)cc1` (configuration not stated) showed a % of control [1] of 89%.
For `N#Cc1cccc(-c2c[nH]c3ncnc(N4CCOCC4)c23)c1`, the % of control [2] was 100% and the % of control [3] was 100%.
Work on `Cc1cc([C@@H](C)Nc2ccccc2C(=O)O)c2nc(N3CCOCC3)cc(=O)n2c1` [AZD-6482] yielded a % of control [4] of 100% and a % of control [5] of 100%.
In the case of `CC[C@@H]1[C@H](F)C(=O)N[C@@H]1COc1nccc2cc(C(N)=O)c(OC)cc12` [ZIMLOVISERTIB], the % of inhibition [6] is reported as 3.68%.
Work on `COc1cc(N(C)c2ccnc3ccc(C(F)(F)F)cc23)cc(OC)c1OC` yielded a % binding [7] of 100%.
`C=CC(=O)Nc1cccc(C(=O)Nc2ccc(Nc3cc(-c4[nH]c(SC)nc4C)ccn3)cc2)c1` showed a % of control ([8]; at 1 µM) of 84% and a % of control ([8]; at 5 µM) of 66%.
`COc1cc(Nc2nc(C)cc(-c3cnn4nc(OC)ccc34)n2)cc(C(F)(F)F)c1` showed a % of control [9] of 74%.
`COc1cc(C(=O)N2CC[C@@H](O)[C@@H](N)C2)cc2nc(-c3cc4ccccc4n3CC3CC3)n(C)c12` showed a pXC50 [10] of less than 4.4 M.
In the case of `CCC(=O)N1CCN(c2ccc(-n3c(=O)ccc4cnc5ccc(-c6cnc7ccccc7c6)cc5c43)cc2C(F)(F)F)CC1`, the % of control [11] is reported as 83%.
